According to ChEMBL document CHEMBL2413048, “3,4-Dihydroxy- and 3,4-methylenedioxy- phenanthrene-type alkaloids with high selectivity for D2 dopamine receptor” (Bioorg Med Chem Lett, 2013):
The source made the active and inactive calls. The calls are words filed in the database; no cut-off is given here.

Columns and labels:
[1] = target: D(2) dopamine receptor (Rattus norvegicus) (UniProt P61169); experiment: (§1) Displacement of [3H]-raclopride from D2 receptor of Wistar rat striatal membranes after 1 hr by liquid scintillation counting; type: cell membranes; settings: Membrane
Chain of D(2) dopamine receptor (Rattus norvegicus) (P61169 whole entry): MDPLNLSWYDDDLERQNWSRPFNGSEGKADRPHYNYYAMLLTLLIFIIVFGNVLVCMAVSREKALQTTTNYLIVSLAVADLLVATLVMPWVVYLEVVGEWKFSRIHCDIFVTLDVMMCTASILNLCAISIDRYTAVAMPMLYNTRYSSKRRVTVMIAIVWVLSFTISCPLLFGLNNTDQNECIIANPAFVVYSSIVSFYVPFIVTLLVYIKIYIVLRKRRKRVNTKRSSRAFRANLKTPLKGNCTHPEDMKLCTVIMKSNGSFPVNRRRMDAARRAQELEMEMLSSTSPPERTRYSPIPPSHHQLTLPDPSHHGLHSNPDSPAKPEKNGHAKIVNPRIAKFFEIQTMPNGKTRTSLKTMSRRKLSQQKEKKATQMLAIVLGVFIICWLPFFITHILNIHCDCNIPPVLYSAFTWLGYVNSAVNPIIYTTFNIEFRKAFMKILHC

D(1A) dopamine receptor = D(1A) dopamine receptor (Rattus norvegicus, UniProt P18901); experiment: Displacement of [3H]-SCH23390 from D1 receptor of Wistar rat striatal membranes after 1 hr by liquid scintillation counting; type: cell membranes, Membrane
Chain of D(1A) dopamine receptor (P18901 whole entry): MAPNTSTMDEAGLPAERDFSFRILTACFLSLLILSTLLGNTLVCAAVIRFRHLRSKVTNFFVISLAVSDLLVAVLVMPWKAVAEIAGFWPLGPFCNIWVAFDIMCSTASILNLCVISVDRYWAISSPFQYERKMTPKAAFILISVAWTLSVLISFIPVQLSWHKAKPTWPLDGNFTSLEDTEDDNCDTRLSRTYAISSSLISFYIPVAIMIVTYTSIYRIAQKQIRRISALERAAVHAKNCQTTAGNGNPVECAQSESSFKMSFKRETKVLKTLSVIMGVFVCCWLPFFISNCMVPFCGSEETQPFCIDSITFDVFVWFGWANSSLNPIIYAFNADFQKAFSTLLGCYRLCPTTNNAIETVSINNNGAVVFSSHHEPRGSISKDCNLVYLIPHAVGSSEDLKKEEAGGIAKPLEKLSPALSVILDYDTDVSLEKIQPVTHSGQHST

D(2) dopamine receptor = D(2) dopamine receptor (Rattus norvegicus, UniProt P61169); experiment: as §1; type: cell membranes, Membrane
Chain of D(2) dopamine receptor (P61169 whole entry): as the sequence (P61169 whole entry) above

Rattus norvegicus = organism: Rattus norvegicus; experiment: Selectivity ratio of Ki for D1 receptor of Wistar rat striatal membranes to Ki for D2 receptor of Wistar rat striatal membranes; type: cell membranes; settings: Membrane

Row | Compound | Activity [1] | Ki (D(1A) dopamine receptor; read-out: Ki) | Ki (D(1A) dopamine receptor; read-out: pKi (converted)) | Ki (D(2) dopamine receptor; read-out: Ki) | Ki (D(2) dopamine receptor; read-out: pKi (converted)) | Ratio Ki (Rattus norvegicus)
1 | COc1cc2c3c(c1OC)-c1ccccc1CC3[N+](C)(C)CC2 (configuration not stated) | inactive | – | – | – | – | –
2 | COc1cc2c3c(c1OC)-c1ccccc1CC3N(C)CC2 (racemic) [(+/-)-NUCIFERINE] | – | 630 nM | 587 nM | 209 nM | 173 nM | –
3 | C[N+]1(C)CCc2cc3c(c4c2C1Cc1ccccc1-4)OCO3 (racemic) | inactive | – | – | – | – | –
4 | C[N+](C)(C)CCc1cc2c(c3c1ccc1ccccc13)OCO2 | inactive | – | – | – | – | –
5 | COc1cc(CCN(C)C)c2ccc3ccccc3c2c1OC | – | 2940 nM | 2920 nM | 323 nM | 321 nM | 9.1
6 | CN1CCc2cc(O)c(O)c3c2C1Cc1ccccc1-3 (configuration not stated) | – | 401 nM | 397 nM | 45 nM | 38.6 nM | 8.9
7 | CN(C)CCc1cc2c(c3c1ccc1ccccc13)OCO2 | – | 6350 nM | 4140 nM | 66 nM | 64.7 nM | 96
8 | COc1cc(CC[N+](C)(C)C)c2ccc3ccccc3c2c1OC | inactive | – | – | – | – | –
9 | CN(C)CCc1cc(O)c(O)c2c1ccc1ccccc12 | – | 7700 nM | 6190 nM | 49 nM | 38.5 nM | 157
10 | CN1CCc2cc3c(c4c2C1Cc1ccccc1-4)OCO3 (racemic) [ROEMERINE] | – | 377 nM | 324 nM | 84 nM | – | 4.4
